Source: patent publication US20170252346A1, “PHARMACEUTICAL COMPOSITION FOR THE TREATMENT OF ACUTE TOOTH OR JAW PAIN” (SANOFI-AVENTIS DEUTSCHLAND GMBH, priority 2014, published 2017)

Test system: patients with post-operative dental pain
Assay: Single-center, randomized, two-stage, parallel-group double-blind clinical study of single-dose efficacy and safety in post-operative dental pain
Type: in vivo, human
Conditions: ibuprofen 400 mg, caffeine 100 mg
Description: Clinical trials are performed in patients using the tablets produced according to example 1 and using the following study design:
Secondary goal: Evaluation of the efficacy and safety of multiple doses of the fixed combination compared with ibuprofen alone over a post-operative time period of 5 days (study stage 2).
Male and female patients between the ages of 18 and 55 years, scheduled for the extraction of 3 to 4 unsound wisdom teeth, with at least 2 extracted molars were recruited; the baseline of dental pain intensity must be at least moderate on a verbal evaluation scale and at least 5 on a numerical evaluation scale ranging from 0 to 10.
Following surgery, one tablet every 6-8 hours for 5 days has been administered.
The time-weighted sum of pain relief (PAR) and the difference in pain intensity (PID) from 0 to 8 hours (SPRID0-8H)
Secondary Endpoint • The time-weighted sum of PAR and PID from 0 to 2 hours (SPRID0-2H) • Duration of pain relief • Time to significant pain relief
The pain intensity (PI) was evaluated in a diary before administration and at 0.25, 0.5, 0.75, 1, 1.5, 2, 3, 4, 5, 6, 7 and 8 hours after the first dose of the study medication using an 11-point numerical rating scale (NPRS) from 0=“no pain” to 10=“worst possible pain”.
The pain relief (PAR) beginning from pain onset was evaluated in a patient diary using a 5-point rating scale (VRS) (0=no pain relief; 1=a little pain relief; 2=some pain relief; 3=much pain relief; 4=complete pain relief) at the same time points as for the PI evaluation.
As soon as a patient needed an emergency medication or a second dose of the medication within less than 8 hours, PI and PAR were evaluated before the emergency medication or second dose was administered.
The time-weighted sum of pain relief (PAR) and the pain intensity difference (PID) relative to baseline between 0 and 8 hours is determined as follows:
PID=PI at baseline−PI at the specific time point (here, higher PID values represent greater benefit for the patient).
Higher values of the SPRID0-8 h likewise indicate greater benefit for the patient.

[1] = Kaplan-Meyer analysis, single dose

## CC(C)Cc1ccc(C(C)C(=O)O)cc1 (racemic) [Ibuprofen, (+/−) 2-(p-isobutylphenyl)-propionic acid]
[1]
  Mean time to obtain relief (time to significant/meaningful pain relief): 2.5 h
  Median duration of action: 7.1 h
time-weighted sum of PAR and PID 0 to 2 hours after single dose
  Adjusted Mean SPRID0-2h value: 6.990
time-weighted sum of pain relief (PAR) and pain intensity difference (PID) 0 to 8 hours after single dose, study stage 1
  Adjusted Mean SPRID0-8h value: 40.165
